Measured values published in US20050014742A1, “Use of inhibitors of the y2 receptor of neuropeptide y in the treatment of alcoholism” (priority 2001, published 2005).
Entries after “also recorded” stand apart in the source; their conditions may differ.

Tests used:
Type in all cases: in vivo, rat
[1] = system: rats; experiment: Preliminary dose-finding experiments (sedation); conditions: dose of 3 nmol i.c.v.
Description: […] […] The drug was dissolved in 0.9% NaCl and injected 45 min prior to onset of sessions, in a volume of 10 μl over a period of 2 min interval. The injection cannula was left in place for an additional minute to prevent back flow.

[2] = system: Male Wistar rats; experiment: Operant ethanol self-administration after intracerebroventricular injection
Description: Male Wistar rats (Charles River, Hamburg, Germany), appr. 225 g at start of experiment were used for the experiments from which data are presented. For a replication experiment (see Results), Wistar males of the same age but delivered by Mollegard, Ry, Denmark, were used. Subjects were housed on a reversed light-cycle (lights off 11 am, on 11 pm). Following training for operant responding (see below), surgery was carried out for unilateral cannula implantation. Rats were anaesthetized with ketaminelxylazine (80 mg/kg and 15 mg/kg) and placed in a stereotaxic apparatus (Kopf). Stainless steel guide cannulas (23 gauge, PlasticOne, Roanoke, Va.) aimed at the lateral ventricle were implanted and secured to the skull with stainless screws and dental cement. Final injection coordinates were: A=−0.8, L=±1.4, V=−4.3 from Bregma (15). Animals were allowed to recover for one week, during which time they were only repeatedly handled, in order to reduce the stress of subsequent intracerebroventricular injections. They were then reintroduced to the operant task (see below), and allowed to re-establish their rates of operant responding for two weeks. Finally, the actual Latin-square design was initiated, and carried out over the course of three weeks.
BIIE0246 ([…]; kind gift of Boehringer Ingelheim) or saline was injected i.c.v. via an injection cannula (28-gauge) connected to a 10 μl Hamilton syringe with a low-volume plastic tubing. […] The drug was dissolved in 0.9% NaCl and injected 45 min prior to onset of sessions, in a volume of 10 μl over a period of 2 min interval. The injection cannula was left in place for an additional minute to prevent back flow.
Following completion of training, rats were subjected to surgery, allowed to recover for one week and to stabilize their baseline responding for two weeks, after which a Latin Square design was initiated and carried out over three weeks. During each of these weeks, rats were run Monday-Friday, and drug administration was on Friday. […] In order to retain a balanced design, the analysis presented here includes only those subjects, which completed all treatments. An analysis based on all subjects, with missing values for failed injections, produced a virtually identical result.

[3] = system: Wistar rats; experiment: Exploratory locomotor activity after intracerebroventricular administration; conditions: for Horizontal locomotor activity / Vertical locomotor activity (rearings): 30 min test period, n=6, mean ± SEM
[4] = Wistar rats from Mollegard, separate experiment (data not shown)

Horizontal locomotor activity ([3]; 0.3 nmol i.c.v.): 2873.8 ± 572.0
Vertical locomotor activity (rearings) ([3]; 0.3 nmol i.c.v.): 756.8 ± 122.9
Horizontal locomotor activity ([3]; 1.0 nmol i.c.v.): 2630.2 ± 480.0
Vertical locomotor activity (rearings) ([3]; 1.0 nmol i.c.v.): 503.3 ± 113.4
SMILES: N=C(N)NCCC[C@H](NC(=O)CC1(CC(=O)N2CCN(C3c4ccccc4NC(=O)c4ccccc43)CC2)CCCC1)C(=O)NCCn1c(=O)n(-c2ccccc2)n(-c2ccccc2)c1=O (stereo partly drawn) [BIIE0246, (S)—N^2-//1-/2-/4-/(R,S)-5,11-Dihydro-6(6H)-oxodibenz/b,elazepin-11-yl/-1-piperazinyl/-2-oxoethyl/-cyclopentyl/acetyl/-N-/2-/1,2-dihydro-3,5(4H)-dioxo-1,2-diphenyl-3H-1,2,4-triazol-4-yl/-ethyl/-argininamide]
Sedative effect [1]: marked sedative effects
Ethanol-reinforced responses over time (cumulative, 5 min intervals) ([2]; 1.0 nmol i.c.v., 30 min session, vs saline, Tukey HSD p<0.001): present during min 10-30; also recorded: significantly less during the last 20 but not during the initial 10 min
Reduction of total responding for ethanol ([2]; 1.0 nmol i.c.v., 45 min before 30 min session, Wistar rats (Charles River), p<0.05 vs saline and vs 0.3 nmol): ~40%
Responding for ethanol ([2]; 1.0 nmol i.c.v., n=13, p=0.013 (FIG. 1A)): significantly reduced
Effect on saccharin solution, replication experiment [2, 4]: no effect
Suppression of responding for ethanol, replication experiment [2, 4]: 40%
Total responding for ethanol (overall treatment effect) ([2]; i.c.v., 0, 0.3 and 1.0 nmol, one way ANOVA, n=13, p=0.013): significantly reduced
Responding for saccharin ([2]; i.c.v., 0.3 and 1.0 nmol, p=0.25, Charles River Wistar rats): unaffected
Effect of treatment on horizontal and vertical locomotor activity ([3]; i.c.v., 0.3 and 1.0 nmol, n=6, p=0.74 horizontal, p=0.17 vertical): Neither horisontal (n=6; F[2,15]=0.3; p=0.74) nor vertical activity (F[2,15]=2.0; p=0.17) was affected
